The record followed here is ChEMBL document CHEMBL5614415, “Recent advances and challenges of revolutionizing drug-resistant tuberculosis treatment” (Eur J Med Chem, 2024).

SMILES strings stand for the structures. In brackets after ≈: the same amount, converted by molar mass.

For the first test, the system named is Mycobacterium tuberculosis. Nature of the test: Antitubercular activity against Multi-drug resistant Mycobacterium tuberculosis assessed as inhibition of bacterial growth incubated for 14 days by broth microdilution method. In kind it is functional. Particulars: 336 h, time 14 day.
`COc1ncccc1Nc1cc2nc3ccccc3n(-c3ccc(OC(F)(F)F)cc3)c-2c/c1=N\C1CCC(OC)CC1` (stereo not drawn): the MIC50 (commonly an inhibitory concentration at the 50% level, which refers to growth in some studies and to a panel of isolates in others) was determined as 0.06 µg/mL (≈ 0.102 µM).
Still for that read-out and setting: the value for `CC(C)/N=c1\cc2n(-c3ccc(Cl)cc3)c3ccccc3nc-2cc1Nc1ccc(Cl)cc1` [CLOFAZIMINE] was 0.12 µg/mL (≈ 0.253 µM).

The test system of a further test is Mycobacterium tuberculosis. Briefly: Antimycobacterial activity against extensively drug resistant Mycobacterium tuberculosis assessed as reduction in microbial growth.
Conditions: not given
In kind it is functional.
Turning to `NC[C@@H]1OB(O)c2c(OCCO)ccc(Cl)c21`, the MIC50 was 5 µg/mL.
Same read-out and setting: the result for `CCOc1ccc(Cl)c2c1B(O)O[C@@H]2CN` reads 0.3 µg/mL; that for `NC[C@H]1OB(O)c2c(OCCO)ccc(Br)c21`, 0.08 µg/mL; that for `CCCOc1ccc(Br)c2c1B(O)O[C@@H]2CN`, 0.38 µg/mL.
Same read-out and setting: the value for `NCC1OB(O)c2c(Oc3ccccc3)ccc(Cl)c21` (stereo not drawn) was 5 µg/mL.
Same read-out and setting: the result for `COc1ccc(Br)c2c1B(O)O[C@@H]2CN` reads 0.1 µg/mL; that for `NCC1OB(O)c2c(OCc3ccccc3)ccc(Cl)c21` (stereo not drawn), 5 µg/mL.
For `CCCCOc1ccc(Br)c2c1B(O)O[C@@H]2CN`, the MIC50 was found to be 0.45 µg/mL.
The same measure, in the same setting: the value for `NC[C@@H]1OB(O)c2c(OCCO)ccc(Br)c21` was 10 µg/mL; that for `CCOc1ccc(Br)c2c1B(O)O[C@@H]2CN` was 0.4 µg/mL.
With `COc1ccc(Cl)c2c1B(O)O[C@@H]2CN`, the MIC50 was determined as 0.1 µg/mL.
Take `NCC1OB(O)c2c(OCCc3ccccc3)ccc(Cl)c21` (stereo not drawn): the MIC50 turned out to be 5 µg/mL.
On the same count and under the same terms, the result for `CCCCOc1ccc(Cl)c2c1B(O)O[C@@H]2CN` reads 0.6 µg/mL; that for `CCCOc1ccc(Cl)c2c1B(O)O[C@@H]2CN`, 0.16 µg/mL; that for `Cl.NC[C@H]1OB(O)c2c(OCCO)ccc(Cl)c21`, 0.023 µg/mL.

A further test deals with Mycobacterium tuberculosis. Briefly: Antibacterial activity against fluoroquinolone-resistant Mycobacterium tuberculosis H37Rv assessed as reduction in bacterial growth measured after 16 to 18 hrs by serial dilution method. In kind it is functional. The conditions noted are these: time 16-18 hrs.
In the case of `COc1c(N2CCNC(C)C2)c(F)cc2c(=O)c(C(=O)O)cn(C3CC3)c12` (stereo not drawn) [GATIFLOXACIN], the MIC90 (usually the lowest concentration that inhibits either 90% of growth or 90% of the strains tested, depending on the study) was determined as 0.06 µg/mL (≈ 0.16 µM).
